Data: patent US7919458B2, “Method of inhibiting prostate cancer cell proliferation” (Scott, Kieran, Francis, priority 2002, dated 2011)
Non-standard residues stand in square brackets, D forms with d. 2Nal = N[C@@H](Cc1ccc2ccccc2c1)C(=O)O

B1: sPLA2-IIA: human recombinant sPLA2-IIA purified from Chinese hamster ovary cell conditioned media (protein, listed as Homo sapiens)
chain: MKTLLLLAVIMIFGLLQAHGNLVNFHRMIKLTTGKEAALSYGFYGCHCGVGGRGSPKDATDRCCVTHDCCYKRLEKRGCGTKFLSYKFSNSGSRITCAKQDSCRSQLCECDKAAATCFARNKTTYNKKYQYYSNKHCRGSTPRC

Columns and labels:
[1] = tested on: LNCaP; experiment: MTS cell growth assay, unstimulated LNCaP cells; type: cell-based, human; conditions: 72 hours; for Proliferation of unstimulated LNCaP cells: 1-100 nM, endogenous sPLA2-IIA; for Smallest effective dose, LNCaP proliferation: doses 1-100 nM
Method: (§1) FIG. 4. Effect of sPLA2-IIA inhibition on unstimulated prostate cancer cells. (A) The endogenous expression of sPLA2-IIA mRNA was evaluated by RT-PCR in three unstimulated prostate cancer cell lines (LNCaP, DU145 and PC-3) grown in RPMI containing 5% FCS. HPRT was used to as a positive control for RNA integrity and loading. (B) Cells were grown in RPMI with 5% FCS were then treated for 72 hours in the presence and absence of the sPLA2-IIA inhibitor c(2Nap)LS(2Nap)R and cell number determined by MTS assay as described in Materials and Methods. Data are mean±SD of quadruplicate determinations expressed as percentages relative to untreated control cells (100%). LNCaP, closed bars, OD495 untreated cells 0.50±0.03; DU145, open bars, OD495 untreated cells 0.73±0.05; PC-3, hatched bars, OD495 untreated cells, 0.66±0.01. *p<0.05 vs untreated control by one-way ANOVA.
(§2) Cell Lines and Culture. The LNCaP, DU145 and PC3 cell lines were purchased from American Type Culture Collection (Rockville, Md.). All cell cultures were maintained in RPMI 1640 supplemented with 5% FBS for LNCaP and 10% FBS for DU145 and PC3 at 37° C. in a humidified environment of 5% CO2. For experiments with addition of androgens, cells were cultured in RPMI 1640 without phenol red and supplemented with same concentration of charcoal stripped FBS. For experiments described in this article, we used cells between passage 30 and 45 for LNCaP, 65 and 80 for DU145 and 25 and 40 for PC3.
(§3) Cell growth assay. Cells were plated at 1×10^4 per well in 96-well plates with 0.1 ml of FBS-supplemented RPMI. After reaching 70-80% confluence (about 48 hours), the medium was changed to that containing various treatments for 3 days. After treatment, the number of viable cells was determined using the MTS assay (CellTiter 96® AQueous Assay; Promega, Madison, Wis.). In brief, 20 ul of MTS solution was added to each well and cells were incubated for 1 h. The absorbance at 490 nm was measured with an ELISA microplate reader. Each experiment was performed in quadruplicate and repeated at least three times.
(§4) To test the effect of blocking endogenous sPLA2-IIA on cell growth, we firstly determined the basal mRNA levels of sPLA2-IIA in 3 human prostate cancer cell lines. The androgen-independent cell lines PC-3 and DU145 cells were included in the study to also exclude a possible general toxicity of the inhibitors. mRNA encoding sPLA2-IIA was undetectable in DU-145 compared with LNCaP and PC-3 cells (FIG. 4A). We then tested the effect of individual inhibitors cFLSYR (SEQ ID NO: 6) and c(2Nap)LS(2Nap) R on cell growth over a range of doses (1-100 nM). […] The low but effective dosage and its specificity for cell lines containing endogenous sPLA2-IIA only, indicate that non-specific cell toxicity is not likely to explain the inhibitory effect.

[2] = tested on: PC-3; experiment: MTS cell growth assay, unstimulated PC-3 cells; type: cell-based, human; conditions: 72 hours; for Proliferation of unstimulated PC-3 cells: 1-100 nM, endogenous sPLA2-IIA; for Smallest effective dose, PC-3 proliferation: doses 1-100 nM
Method: as §1, §2, §3, §4

[3] = tested on: DU145; experiment: MTS cell growth assay, unstimulated DU145 cells; type: cell-based, human; conditions: 1-100 nM, 72 hours, sPLA2-IIA mRNA undetectable
Method: as §1
Cell Lines and Culture. The LNCaP, DU145 and PC3 cell lines were purchased from American Type Culture Collection (Rockville, Md.). […]
(§5) Cell growth assay. […] After treatment, the number of viable cells was determined using the MTS assay (CellTiter 96® AQueous Assay; Promega, Madison, Wis.). […] The absorbance at 490 nm was measured with an ELISA microplate reader. […]
To test the effect of blocking endogenous sPLA2-IIA on cell growth, we firstly determined the basal mRNA levels of sPLA2-IIA in 3 human prostate cancer cell lines. […]

[4] = target: T1, human sPLA2-IIA (Homo sapiens, UniProt P14555); conditions: previously published work (Tseng et al. 1996; Church et al. 2001); cited from earlier work
T1 sequence (P14555 21-144): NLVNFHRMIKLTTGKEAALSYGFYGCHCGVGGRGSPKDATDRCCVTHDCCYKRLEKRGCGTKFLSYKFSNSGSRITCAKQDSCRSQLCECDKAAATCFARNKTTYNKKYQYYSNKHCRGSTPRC

[5] = tested on: LNCaP cells; experiment: MTS cell growth assay, inhibition of sPLA2-IIA-stimulated LNCaP proliferation; type: cell-based, human; conditions: fixed sPLA2-IIA (1 nM), 72 hours, increasing inhibitor concentrations
Method: (§6) FIG. 2. Effect of exogenous addition of sPLA2-IIA on prostate cell growth. LNCaP cells were grown in RPMI with 5% FCS and treated for 72 hours in media containing (A) increasing concentrations of sPLA2-IIA alone (closed bars) or increasing concentrations of the activity-dead sPLA2-IIA mutant H48Q. (B) a fixed concentration of sPLA2-IIA and increasing concentrations of the sPLA2-IIA inhibitor cFLSYR (SEQ ID NO: 6). Cell number relative to untreated control cells was determined by the MTS assay as described in Materials and Methods. Data are Mean±SD of quadruplicate determinations normalised to 100% for untreated cells. OD495 of unstimulated cells was 0.29±0.06 for sPLA2-IIA and 0.24±0.03 for the sPLA2-IIA mutant experiments in panel A and 0.24±0.03 for panel B. *p<0.05 vs untreated control by one-way ANOVA. Data are representative of three separate experiments. (C). […]
FIG. 3. […] Cell number was determined by the MTS assay as described in Materials and Methods. Data are mean±SD of quadruplicate determinations expressed as percentages relative to untreated control cells (100%) (open bar). […]
as §5

[6] = tested on: LNCaP cells; experiment: Flow cytometric cell cycle analysis (propidium iodide) of LNCaP cells; type: cell-based, human
Method: FIG. 2. Effect of exogenous addition of sPLA2-IIA on prostate cell growth. LNCaP cells were grown in RPMI with 5% FCS and treated for 72 hours in media containing (A) increasing concentrations of sPLA2-IIA alone (closed bars) or increasing concentrations of the activity-dead sPLA2-IIA mutant H48Q. (B) a fixed concentration of sPLA2-IIA and increasing concentrations of the sPLA2-IIA inhibitor cFLSYR (SEQ ID NO: 6). Cell number relative to untreated control cells was determined by the MTS assay as described in Materials and Methods. Data are Mean±SD of quadruplicate determinations normalised to 100% for untreated cells. OD495 of unstimulated cells was 0.29±0.06 for sPLA2-IIA and 0.24±0.03 for the sPLA2-IIA mutant experiments in panel A and 0.24±0.03 for panel B. *p<0.05 vs untreated control by one-way ANOVA. Data are representative of three separate experiments. (C). LNCaP cells were grown as above and stimulated for 72 hours with sPLA2-IIA (1 nM) in the absence (dotted lines) and presence (solid lines) of the sPLA2-IIA inhibitor cFLSYR (SEQ ID NO: 6) (100 nM). Cells (1×10^6) were assayed by flow cytometry following treatment with propidium iodide as described in Materials and Methods. Statistical analysis was performed on 10,000 events per sample. Data are representative of three separate experiments.
Flow Cytometric Analysis. Cells were seeded in 25 ml flasks in conditions as described above. Following treatment, trypsinization and cell counting, LNCaP cells (1×10^6) were suspended in 1 mL PBS and incubated with 0.2 mL 0.4% Triton® X-100 for 5 min at R/T in the presence of 50 μL of propidium iodide solution (50 μg/mL) and 20 μL of ribonuclease (10 mg/mL). DNA content per cell was measured by flow cytometry using an FACScalibur® flow cytometer and CellQuest® software (Becton Dickinson, Franklin Lakes, N.J.). Statistical analysis was performed on 10,000 events per sample.
We next used flow cytometric analysis to determine how sPLA2-IIA affects the distribution of LNCaP cells in different phases of the cell cycle. […]

[7] = tested on: LNCaP cells; experiment: MTS cell growth assay, exogenous sPLA2-IIA added to LNCaP cells; type: cell-based, human; conditions: 72 hours
Method: as §6, §5
To examine the biological relevance of sPLA2-IIA to prostate cancer cell growth, we treated LNCaP cells with increasing doses of human recombinant sPLA2-IIA and monitored cell growth. […]

Molecule	Proliferation of unstimulated LNCaP cells [1]	Smallest effective dose, LNCaP proliferation [1] [nM]	Proliferation of unstimulated PC-3 cells [2]	Smallest effective dose, PC-3 proliferation [2] [nM]	Effect on unstimulated DU145 cell growth [3]	Inhibition of human sPLA2-IIA in in vitro activity assays [4]	Effect on sPLA2-IIA-stimulated LNCaP cell number/growth [5]	Proportion of cells in G1 and G2 phase with sPLA2-IIA plus inhibitor ([6]; sPLA2-IIA 1 nM plus cFLSYR 100 nM, 72 hours)	Lowest dose stimulating LNCaP cell growth ([7]; MTS assay) [nM]	Effect of exogenously added protein on LNCaP cell growth (MTS) ([7]; RPMI with 5% FCS, relative to untreated cells)	Proportion of LNCaP cells in G1 phase ([6]; sPLA2-IIA containing medium (1 nM), 72 hours, untreated 74%) [%]	Proportion of LNCaP cells in G2/M phase ([6]; sPLA2-IIA containing medium, in comparison to untreated cells)
c(2NapA)LS(2NapA)R: cyclic peptide where F and Y are substituted with 2-naphthylalanine; sPLA2-IIA inhibitor (cyclo([2Nal]LS[2Nal]R); SMILES CC(C)C[C@@H]1NC(=O)[C@H](Cc2ccc3ccccc3c2)NC(=O)[C@H](CCCNC(=N)N)NC(=O)[C@H](Cc2ccc3ccccc3c2)NC(=O)[C@H](CO)NC1=O)	significantly decreased	1	significantly decreased	1	neither of the inhibitors had an effect	significant improvement in potency over linear peptides	–	–	–	–	–	–
cFLSYR: cyclic peptide FLSYR, sPLA2-IIA inhibitor derived from residues 70-74 of human sPLA2-IIA (cyclic)	significantly decreased	1	significantly decreased	1	neither of the inhibitors had an effect	significant improvement in potency over linear peptides	completely blocked	returned to basal levels	–	–	–	–
B1	–	–	–	–	–	–	–	–	1	dose-dependently stimulated LNCaP cell growth	62	increase
